How the values were obtained:
[1] = biological target: Receptor tyrosine-protein kinase erbB-2 (Homo sapiens, UniProt P04626); test: Inhibition of c-erbB-2
[2] = biological target: Cyclin-dependent kinase 4 (Homo sapiens, UniProt P11802); test: Inhibition of CDK4
Cyclin-dependent kinase 4, sequence (P11802 whole entry): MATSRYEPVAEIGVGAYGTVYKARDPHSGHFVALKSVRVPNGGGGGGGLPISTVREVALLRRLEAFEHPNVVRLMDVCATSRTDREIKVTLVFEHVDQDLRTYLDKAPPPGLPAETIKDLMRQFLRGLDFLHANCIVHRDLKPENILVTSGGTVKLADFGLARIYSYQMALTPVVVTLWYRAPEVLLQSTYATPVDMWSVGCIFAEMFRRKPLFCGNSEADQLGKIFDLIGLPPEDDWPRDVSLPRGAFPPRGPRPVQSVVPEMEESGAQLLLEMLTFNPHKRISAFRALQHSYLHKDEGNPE

Receptor tyrosine-protein kinase erbB-2, sequence (P04626 whole entry): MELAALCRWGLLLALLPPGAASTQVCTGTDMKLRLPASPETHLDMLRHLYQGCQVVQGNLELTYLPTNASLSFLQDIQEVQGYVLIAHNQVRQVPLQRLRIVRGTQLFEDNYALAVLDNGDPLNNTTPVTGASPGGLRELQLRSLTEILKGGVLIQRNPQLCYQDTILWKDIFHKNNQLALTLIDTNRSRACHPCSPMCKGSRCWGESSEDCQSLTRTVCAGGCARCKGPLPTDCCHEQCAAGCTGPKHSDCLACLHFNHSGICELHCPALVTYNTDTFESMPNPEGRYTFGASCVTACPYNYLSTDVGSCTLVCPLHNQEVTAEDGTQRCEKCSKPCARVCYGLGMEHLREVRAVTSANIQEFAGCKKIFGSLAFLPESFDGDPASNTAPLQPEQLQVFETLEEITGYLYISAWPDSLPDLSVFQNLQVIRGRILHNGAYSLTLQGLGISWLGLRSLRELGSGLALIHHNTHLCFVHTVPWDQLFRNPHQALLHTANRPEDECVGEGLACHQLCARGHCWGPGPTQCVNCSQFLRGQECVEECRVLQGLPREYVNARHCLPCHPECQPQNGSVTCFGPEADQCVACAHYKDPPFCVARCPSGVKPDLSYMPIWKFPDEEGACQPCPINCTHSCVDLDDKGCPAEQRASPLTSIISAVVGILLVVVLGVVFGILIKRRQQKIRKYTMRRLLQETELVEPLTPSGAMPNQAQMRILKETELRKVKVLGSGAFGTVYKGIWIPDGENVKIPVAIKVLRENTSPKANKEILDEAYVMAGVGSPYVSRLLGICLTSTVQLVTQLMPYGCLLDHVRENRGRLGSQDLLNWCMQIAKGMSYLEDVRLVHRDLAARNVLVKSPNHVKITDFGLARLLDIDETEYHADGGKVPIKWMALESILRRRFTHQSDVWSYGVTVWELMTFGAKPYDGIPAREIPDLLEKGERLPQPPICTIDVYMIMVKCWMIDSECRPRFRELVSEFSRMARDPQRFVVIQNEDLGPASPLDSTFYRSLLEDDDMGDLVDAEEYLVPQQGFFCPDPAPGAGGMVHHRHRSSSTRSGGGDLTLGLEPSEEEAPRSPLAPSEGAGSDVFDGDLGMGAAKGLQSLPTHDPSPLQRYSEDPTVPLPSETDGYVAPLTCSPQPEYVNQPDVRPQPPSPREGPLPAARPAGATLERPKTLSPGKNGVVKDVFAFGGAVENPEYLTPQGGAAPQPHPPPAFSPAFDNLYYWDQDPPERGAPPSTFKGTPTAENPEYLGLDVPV

Compound	IC50 [1]	IC50 [2]
O=C1NC(=O)/C(=C2\CCNC(=O)c3[nH]ccc32)N1 [SPONGIACIDIN C]	> 203 µM	> 203 µM
O=C1NC(=O)/C(=C2\CCNC(=O)c3[nH]c(Br)cc32)N1 [SPONGIACIDIN D]	> 154 µM	> 154 µM

— ChEMBL document CHEMBL1150895, “Spongiacidins A-D, new bromopyrrole alkaloids from hymeniacidon sponge” (J Nat Prod, 1998)
